For eight compounds, EC50 and IC50 results are on record in patent US12338220B2, “Antiviral pyrazolopiridinone compounds” (Novartis AG, priority 2019, dated 2025).

In one assay the test system is CMV. In words: microbe, parasite or virus in culture. The class given is cell-based. The note with it: Human betaherpesvirus 5, 72 h, read-out: CMV-Luc Cellular EC50, NN-NHDF cells, MOI 1, 72 hrs.
A further assay addresses CMV-polymerase (Human cytomegalovirus (strain AD169) (HHV-5) (Human herpesvirus 5), UniProt P08546). In words: biochemical.
Another assay concerns the target HSV-polymerase (Human herpesvirus 1 (strain 17) (HHV-1) (Human herpes simplex virus 1), UniProt P04293). In words: biochemical.
[1] abbreviates: read-out: CMV-polymerase Biochemical IC50.
The mark [2] stands for this setting: CMV-polymerase Biochemical IC50.

Where two headings read alike, the source gives them in different places.

On to `CC(=O)OCC(C)(C)S(=O)(=O)C1(CN2CCc3c(C(=O)NCc4ccc(C#N)cc4)nn(C)c3C2=O)CC1` [Example 57, 2-((1-((3-((4-Cyanobenzyl)carbamoyl)-1-methyl-7-oxo-4,5-dihydro-1H-pyrazolo[3,4-c]pyridin-6(7H)-yl)methyl)cyclopropyl)sulfonyl)-2-methylpropyl acetate], for which the EC50 in the assay on CMV is 22 nM. Further, the IC50 was 1 nM on CMV-polymerase (setting [1]) and 35 nM at HSV-polymerase.

With `Cn1nc(C(=O)NCc2ccc(C#N)cc2)c2c1C(=O)N(CC1(S(=O)(=O)C(C)(C)CNC=O)CC1)CC2` [Example 71, N-(4-Cyanobenzyl)-6-((1-((1-formamido-2-methylpropan-2-yl)sulfonyl)cyclopropyl)methyl)-1-methyl-7-oxo-4,5,6,7-tetrahydro-1H-pyrazolo[3,4-c]pyridine-3-carboxamide], in the assay with CMV, the EC50 came to 95 nM. The IC50 on CMV-polymerase (setting [2]) worked out at 1 nM; against HSV-polymerase, 33 nM.

With `CC(=O)NCC(C)(C)S(=O)(=O)C1(CN2CCc3c(C(=O)NCc4ccc(C#N)cc4)nn(C)c3C2=O)CC1` [Example 72, 6-((1-((1-Acetamido-2-methylpropan-2-yl)sulfonyl)cyclopropyl)methyl)-N-(4-cyanobenzyl)-1-methyl-7-oxo-4,5,6,7-tetrahydro-1H-pyrazolo[3,4-c]pyridine-3-carboxamide], the EC50 in the assay on CMV amounted to 83 nM. Besides, the IC50 on CMV-polymerase (setting [2]) is 2 nM; against HSV-polymerase, 51 nM.

Turning to `Cn1nc(C(=O)NCc2ccc(Cl)cc2)c2c1C(=O)N(CC1(S(=O)(=O)C(C)(C)COCCN)CC1)CC2` [Example 93, 6-((1-((1-(2-Aminoethoxy)-2-methylpropan-2-yl)sulfonyl)cyclopropyl)methyl)-N-(4-chlorobenzyl)-1-methyl-7-oxo-4,5,6,7-tetrahydro-1H-pyrazolo[3,4-c]pyridine-3-carboxamide], the EC50 with CMV is 5 nM. Besides, the values for the IC50 at CMV-polymerase (setting [1]) and against HSV-polymerase were 1 nM and 25 nM, respectively.

Consider `Cn1nc(C(=O)NCc2ccc(F)cc2)c2c1C(=O)N(CC1(S(=O)(=O)C(C)(C)COCCN)CC1)CC2` [Example 94, 6-((1-((1-(2-aminoethoxy)-2-methylpropan-2-yl)sulfonyl)cyclopropyl)methyl)-N-(4-fluorobenzyl)-1-methyl-7-oxo-4,5,6,7-tetrahydro-1H-pyrazolo[3,4-c]pyridine-3-carboxamide], for which the EC50 in the assay on CMV stood at 22 nM. Further, the IC50 at CMV-polymerase (setting [1]) worked out at 9 nM; against HSV-polymerase it was 54 nM.

`Cn1nc(C(=O)NCc2ccc(Cl)cc2)c2c1C(=O)N(CC1(S(=O)(=O)C3(COCCN)CC3)CC1)CC2` [Example 95, 6-((1-((1-((2-Aminoethoxy)methyl)cyclopropyl)sulfonyl)cyclopropyl)methyl)-N-(4-chlorobenzyl)-1-methyl-7-oxo-4,5,6,7-tetrahydro-1H-pyrazolo[3,4-c]pyridine-3-carboxamide]: in the assay on CMV, the EC50 is 11 nM. The half-maximal inhibitory concentration (IC50) amounted to 2 nM on CMV-polymerase (setting [1]) and 25 nM against HSV-polymerase.

Take `Cn1nc(-c2cn(Cc3ccc(C#N)cc3)nn2)c2c1C(=O)N(CC1(S(=O)(=O)C(C)(C)CO)CC1)CC2` [Example 105, 4-((4-(6-((1-((1-Hydroxy-2-methylpropan-2-yl)sulfonyl)cyclopropyl)methyl)-1-methyl-7-oxo-4,5,6,7-tetrahydro-1H-pyrazolo[3,4-c]pyridin-3-yl)-1H-1,2,3-triazol-1-yl)methyl)benzonitrile]: the EC50 with CMV was 42 nM. The IC50 at CMV-polymerase (setting [1]) amounted to 1 nM; on HSV-polymerase, 32 nM.

In the case of `Cn1nc(C2=NO[C@@H](c3ccc(C#N)cc3)C2)c2c1C(=O)N(CC1(S(=O)(=O)C(C)(C)CO)CC1)CC2` [Example 107, (R)-4-(3-(6-((1-((1-Hydroxy-2-methylpropan-2-yl)sulfonyl)cyclopropyl)methyl)-1-methyl-7-oxo-4,5,6,7-tetrahydro-1H-pyrazolo[3,4-c]pyridin-3-yl)-4,5-dihydroisoxazol-5-yl)benzonitrile], the EC50 with CMV is above 10000 nM. The IC50 is 872 nM on CMV-polymerase (setting [1]) and above 25000 nM at HSV-polymerase (read-out: HSV-polymerase Biochemical IC50).
